Counter-ions that a name gives are not always drawn.
Tests used:
Format in all cases: functional
HOP-62 = test: Growth inhibition of Homo sapiens (human) HOP62 cells at 10^-5 M after 48 hr by SRB assay; conditions: HOP-62, 48 h, read-out: GI
PC-3 = test: Growth inhibition of Homo sapiens (human) PC3 cells at 10^-5 M after 48 hr by SRB assay; conditions: PC-3, 48 h, read-out: GI
MCF7 = test: Growth inhibition of Homo sapiens (human) MCF7 cells at 10^-5 M after 48 hr by SRB assay; conditions: MCF7, 48 h, read-out: GI
SF-295 = test: Growth inhibition of Homo sapiens (human) SF295 cells at 10^-5 M after 48 hr by SRB assay; conditions: SF-295, 48 h, read-out: GI
Rattus norvegicus = test: Anti-inflammatory activity in Rattus norvegicus Charles Foster albino (rat) assessed as inhibition of carrageenan-induced paw edema at 50 mg/kg, po administered 30 min prior to carrageenan-challenge measured up to 3 hr relative to control; design: scale not given: the % may be the effect or the level left
IGROV-1 = test: Growth inhibition of Homo sapiens (human) IGROV1 cells at 10^-5 M after 48 hr by SRB assay; conditions: IGROV-1, 48 h, read-out: GI
A549 = test: Growth inhibition of Homo sapiens (human) A549 cells at 10^-5 M after 48 hr by SRB assay; conditions: A549, 48 h, read-out: GI

SMILES	inhibition of growth at 10 µM (HOP-62)	inhibition of growth at 10 µM (PC-3)	inhibition of growth at 10 µM (MCF7)	inhibition of growth at 10 µM (SF-295)	Activity (Rattus norvegicus)	inhibition of growth at 10 µM (IGROV-1)	inhibition of growth at 10 µM (A549)
O=C1c2ccccc2C(=O)c2c1ccc1nc(-c3cccc4ccccc34)[nH]c21	61%	71%	76%	81%	14%	71%	93%
Cc1ccsc1-c1nc2ccc3c(c2[nH]1)C(=O)c1ccccc1C3=O	19%	16%	36%	30%	16%	6%	15%
Cc1ccc(-c2nc3ccc4c(c3[nH]2)C(=O)c2ccccc2C4=O)s1	6%	14%	47%	43%	26%	8%	35%
Cn1cccc1-c1nc2ccc3c(c2[nH]1)C(=O)c1ccccc1C3=O	11%	28%	72%	52%	34%	27%	31%
O=C1c2ccccc2C(=O)c2c1ccc1nc(-c3ccc4ccccc4c3)[nH]c21	9%	15%	26%	34%	35%	9%	2%
O=C1c2ccccc2C(=O)c2c1ccc1nc(-c3c(O)ccc4ccccc34)[nH]c21	78%	87%	61%	92%	22%	82%	97%
Cc1ccsc1-c1nc2cc3nc4ccccc4nc3cc2[nH]1	4%	12%	17%	28%	38%	30%	27%
Cc1ccc(-c2nc3cc4nc5ccccc5nc4cc3[nH]2)s1	20%	29%	56%	32%	10%	18%	53%
Cn1cccc1-c1nc2cc3nc4ccccc4nc3cc2[nH]1	12%	43%	41%	40%	14%	26%	36%
c1ccc2c(-c3nc4cc5nc6ccccc6nc5cc4[nH]3)cccc2c1	98%	97%	88%	100%	19%	92%	97%
c1ccc2cc(-c3nc4cc5nc6ccccc6nc5cc4[nH]3)ccc2c1	9%	22%	29%	20%	28%	19%	26%
Oc1ccc2ccccc2c1-c1nc2cc3nc4ccccc4nc3cc2[nH]1	90%	81%	84%	97%	30%	84%	87%
Cc1ccsc1/C=N\C(=N)Nc1nc2ccccc2[nH]1	13%	10%	9%	40%	38%	17%	3%
Cc1ccc(/C=N\C(=N)Nc2nc3ccccc3[nH]2)s1	14%	8%	0%	36%	24%	20%	13%
Cn1cccc1/C=N/C(=N)Nc1nc2ccccc2[nH]1	28%	1%	24%	40%	0%	23%	12%
N=C(/N=C/c1cccc2ccccc12)Nc1nc2ccccc2[nH]1	26%	13%	25%	40%	34%	13%	9%
N=C(/N=C\c1ccc2ccccc2c1)Nc1nc2ccccc2[nH]1	18%	10%	6%	42%	26%	26%	8%
N=C(/N=C/c1c(O)ccc2ccccc12)Nc1nc2ccccc2[nH]1	9%	15%	4%	34%	0%	23%	2%
COc1cccc2c1C(=O)c1c(O)c3c(c(O)c1C2=O)C[C@@](O)(C(=O)CO)C[C@@H]3O[C@H]1C[C@H](N)[C@H](O)[C@H](C)O1 [DOXORUBICIN HYDROCHLORIDE]	32%	–	72%	69%	–	39%	27%
CO[C@@]12[C@H](COC(N)=O)C3=C(C(=O)C(C)=C(N)C3=O)N1C[C@@H]1N[C@@H]12 [MITOMYCIN]	–	61%	–	43%	–	47%	–
CC(=O)O[C@H]1C(=O)[C@@]2(C)[C@H]([C@H](OC(=O)c3ccccc3)[C@]3(O)C[C@H](OC(=O)[C@H](O)[C@@H](NC(=O)c4ccccc4)c4ccccc4)C(C)=C1C3(C)C)[C@]1(OC(C)=O)CO[C@@H]1C[C@@H]2O [PACLITAXEL]	37%	–	–	–	–	37%	54%

From ChEMBL document CHEMBL3046918, “Conventional and microwave-assisted synthesis of imidazole and guanidine derivatives and their biological evaluation” (2011)
